target: T1, IRAK4 kinase protein (Homo sapiens, UniProt Q9NWZ3); test: IRAK4 kinase inhibition assay (Cisbio HTRF KinEASE-STK S1 kit); assay type: biochemical; settings: IRAK4 10 nM, ATP 200 μM, substrate 1 μM, 37° C. for 2 h, read-out: IRAK4 inhibitory activity IC50
T1 sequence (Q9NWZ3 1-460): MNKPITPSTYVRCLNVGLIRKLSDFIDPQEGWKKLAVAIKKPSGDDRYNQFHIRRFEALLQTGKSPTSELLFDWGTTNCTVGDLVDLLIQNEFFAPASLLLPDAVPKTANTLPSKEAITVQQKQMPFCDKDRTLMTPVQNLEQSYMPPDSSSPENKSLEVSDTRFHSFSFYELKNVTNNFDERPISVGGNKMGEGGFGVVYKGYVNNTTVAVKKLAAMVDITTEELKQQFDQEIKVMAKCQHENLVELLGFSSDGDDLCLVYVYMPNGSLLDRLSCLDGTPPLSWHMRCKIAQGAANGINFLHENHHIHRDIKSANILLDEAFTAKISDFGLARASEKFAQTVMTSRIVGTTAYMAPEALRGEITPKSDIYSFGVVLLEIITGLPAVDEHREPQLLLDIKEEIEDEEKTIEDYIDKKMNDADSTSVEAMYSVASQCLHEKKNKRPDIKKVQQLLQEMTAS
Procedure: In this assay, the Cisbio HTRF KinEASE-STK SI kit (62S1PEB) was used. The assay/detection buffer, STK Substrate 1-biotin, Streptavidin-XL665, and STKAntibody-Crypatete were all contained in the kit.
After the compound/DMSO was added to a 384-well plate (PerkinElmer 6008280) using Echo 665, 5 μL of 2-fold reaction concentration of IRAK4 kinase protein (final concentration: 10 nM) dissolved with an assay buffer [1 volume of 5× kinase buffer+20 mM magnesium chloride (Sigma) solution+1 mM DTT (Alfa Aesar) solution+4 volumes of deionized water] was added. The shallow well plate was sealed, shaken, centrifuged at 1000 rpm for 1 min, and then incubated at room temperature for 5 min. Then, 5 μL of 2-fold reaction concentration of a 1:1 mixture of STK Substrate 1-biotin (final concentration: 1 μM) and ATP (Sigma A1852) (final concentration: 200 μM) formulated with the assay buffer was added. The shallow well plate was sealed, shaken, centrifuged at 1000 rpm for 1 min, and then incubated at 37° C. for 2 h, followed by the addition of 10 μL of a 1:1 mixture of Streptavidin-XL665 (final concentration: 62.5 nM) and STK-antibody-cryptate dissolved with a detection buffer. The shallow well plate was sealed, shaken, centrifuged at 1000 rpm for 1 min, and then incubated at room temperature for 1 h, and then the value at the wavelength of 620 nm/665 nm was read using a microplate reader. The data were analyzed using Prism 9.3 software, and the IC50 value of IRAK4 kinase inhibition was fitted using a four parameter Logistic equation.

IC50 [µM]	SMILES
5 to 10	FC(F)c1nn(C2CCCCC2)c2cnc(-n3ccc4ccc(N5CCOCC5)nc43)cc12 [Compound C1]
1 to 5	N#Cc1cnc2c(-c3cc4c(C(F)F)nn(C5CCCCC5)c4cn3)cnn2c1 [Compound C3i]
< 1	NC(=O)c1cnn2c(-c3cc4c(C(F)F)nn(C5CCCCC5)c4cn3)ccc2c1 [Compound C4ii]
> 10	N#Cc1cnc2c(ccn2-c2cc3c(C(F)F)nn(C4CCCCC4)c3cn2)c1 [Compound C5i]
1 to 5	NC(=O)c1cnc2c(ccn2-c2cc3c(C(F)F)nn(C4CCCCC4)c3cn2)c1 [Compound C5ii]

Reference: patent US20260200944A1, “NOVEL IRAK4 INHIBITOR AND COMPOUND FOR INHIBITING AND DEGRADING IRAK4 PROTEIN, AND PREPARATION METHOD THEREFOR AND USE THEREOF” (DOVETREE MEDICINES UNUS, INC., priority 2022, published 2026)
